Assay results reported in publication PMC4836799, “Experimental and Theoretical Evaluation of the Ethynyl Moiety as a Halogen Bioisostere” (ACS Chemical Biology, 2015).
“And” between values parts separate entries of the source, which are not always exact repeats. Identical values can stand only once.

Tests used:
T-p53C-Y220C = biological target: T1, T-p53C-Y220C (Homo sapiens, UniProt P04637, M133L/N239Y/N268D/V203A/Y220C); test: Differential scanning fluorimetry (DSF); format: binding; conditions: 10 μM protein
T1 construct: made in house
Procedure: The effect of compounds on the melting temperature of T-p53C-Y220C were monitored using SYPRO Orange (Invitrogen, USA) as a fluorescent probe, which quantitatively binds to hydrophobic protein patches exposed upon thermal denaturation. Real-time melt analysis was performed using a Corbett Rotor-Gene 6000 real-time qPCR thermocycler. Excitation and emission filters were set to 460 and 510 nm, respectively. Heating from 28 to 60 °C, a constant heating rate of 270 K/h was applied. The protein (final concentration of 10 μM) was briefly mixed with SYPRO orange (10x) in buffer (25 mM KPi pH 7.2, 150 mM NaCl, 1 mM TCEP), and compound (5 mM) dissolved in DMSO was added to give a final compound concentration of 250 μM in 5% (v/v) DMSO. The melting temperature (Tm) of the protein (10 μM) in the presence of compounds was determined from the inflection point of the melting curve. Melting temperatures were compared with control samples without compound (yielding ΔTm DSF). All samples were measured in triplicate.

[1] = biological target: T2, p53-Y220C DNA-binding domain (Homo sapiens, UniProt P04637, M133L/N239Y/N268D/V203A/Y220C); test: Competition ITC with PK5174 (1) as coupling ligand
T2 construct: made in house
Procedure: We assessed the binding of 3 to the stabilized DNA-binding domain of the p53 mutant Y220C (residues 94–312) using an array of biophysical techniques. […] Because the competition titration could not be performed at a c-value of 2 or higher, it was not possible to reliably decompose ΔG into ΔH and ΔS.[25]
All ITC experiments were conducted using a Microcal iTC200 calorimeter as previously described.[14] Briefly, protein and compounds were dissolved in 25 mM KPi, pH 7.2, 150 mM NaCl, 1 mM TCEP in 5% (v/v) DMSO. The cell unit contained 80 μM protein, and 2 mM compound was used for the syringe. The ITC competition experiment was conducted using 500 μM of compound 3 and 50 μM protein for the cell sample and 2 mM of compound 1 in the syringe. The actual and apparent binding constants for 1 were calculated with MicroCal Origin software using a standard one-site model. The binding constant of 3 was then calculated using an equation for ITC displacement titrations described by Zhang and Zhang[24] [drawing 2]

C#Cc1cc(C#CCOc2ccccc2)cc(CN2CCC(N(CC)CC)CC2)c1O [PK5211, 2-((4-(diethylamino)piperidin-1-yl)methyl)-6-ethynyl-4-(3-phenoxyprop-1-ynyl)phenol]
thermal stabilization of the mutant protein (Tm) (T-p53C-Y220C): concentration-dependent thermal stabilization
thermal stabilization of the mutant protein (Tm) (T-p53C-Y220C; listed as 3): concentration-dependent increase of the protein melting point
Kd ([1]; competition with PK5174 (1), 500 μM compound 3, equation of Zhang and Zhang, read-out: KD determined indirectly by competition ITC): ~270 µM and 271 µM
loss in affinity ([1]; ethynyl compound 3 versus iodo compound 2): approximately 13 fold
